Measurements published in paper PMC12543186, “Discovery of C-12 dithiocarbamate andrographolide analogue as a novel antioxidant and α-glucosidase inhibitors: In vitro and in silico studies” (PLOS One, 2025).
Values joined by “and” are separate entries in the source; they are usually repeats but may differ in a detail not shown here. Equal values may be shown once. Read-outs that look alike come from different tables or passages of the source.

Key:
[1] = DPPH radical scavenging activity; settings: for IC50: 200 μM DPPH solution
Procedure: The DPPH radical scavenging activity was conducted to thoroughly evaluate the antioxidant potential of andrographolide and its analogues. We modified the assay employing the Sekhon-Loodu and Rupasinghe methods. A DPPH solution was prepared in absolute ethanol, with a concentration of 200 μM. Next, 100 μL of DPPH solution was mixed with 100 μL of the sample in a 96-well plate. The mixture was then incubated for 30 minutes at room temperature. Following incubation, we measured the absorbance at 517 nm using a microplate reader. We tested the antioxidant properties of the compounds at a concentration of 500 μM to detect the weak-to-moderate antioxidants while addressing solubility limitations and minimizing assay artefacts, consistent with previous research. The DPPH radical scavenging activity was precisely expressed as a percentage of DPPH inhibition (% DPPH Inhibition). We selected candidates based on their higher inhibitory activity and prepared various concentrations of these candidates for testing. α-tocopherol, also known as vitamin E, was employed as a positive control. The % DPPH Inhibition was calculated as follows:
%DPPH Inhibition=(1–{A/B})×100
Where A was the absorbance of the DPPH with sample, and B was the absorbance of the DPPH with vehicle (blank).

[2] = Ferric reducing antioxidant power (FRAP) activity
Procedure: The FRAP activity assay was performed to assess the reducing power ability to reduce ferric ions (Fe^3+) to ferrous ions (Fe^2+), following the established method described by Sekhon-Loodu and Rupasinghe. The FRAP reagent was freshly prepared by combining 300 mM acetate buffer pH 3.6, 10 mM 2,4,6- Tri(2-pyridyl)-s-triazine (TPTZ) dissolved in 40 mM HCl, and 20 mM FeCl3 in a ratio of 10:1:1. Ferrous sulfate (FeSO4) was used as a standard, with ascorbic acid serving as a control. The assay was conducted in a 96-well plate by mixing 20 μL of the sample, standard, or positive control with 80 μL of the FRAP solution. The mixture was then incubated for 20 minutes at room temperature, after which we measured absorbance at 595 nm using a microplate reader. The results were expressed as FRAP value, reported as ascorbic acid equivalent in μM (AAE, μM), providing a definitive measure of reducing power.

[3] = target: T1, α-glucosidase from Saccharomyces cerevisiae (Saccharomyces cerevisiae, UniProt P38158); assay: Surface plasmon resonance, steady-state affinity; type: binding
T1 sequence (P38158 whole entry): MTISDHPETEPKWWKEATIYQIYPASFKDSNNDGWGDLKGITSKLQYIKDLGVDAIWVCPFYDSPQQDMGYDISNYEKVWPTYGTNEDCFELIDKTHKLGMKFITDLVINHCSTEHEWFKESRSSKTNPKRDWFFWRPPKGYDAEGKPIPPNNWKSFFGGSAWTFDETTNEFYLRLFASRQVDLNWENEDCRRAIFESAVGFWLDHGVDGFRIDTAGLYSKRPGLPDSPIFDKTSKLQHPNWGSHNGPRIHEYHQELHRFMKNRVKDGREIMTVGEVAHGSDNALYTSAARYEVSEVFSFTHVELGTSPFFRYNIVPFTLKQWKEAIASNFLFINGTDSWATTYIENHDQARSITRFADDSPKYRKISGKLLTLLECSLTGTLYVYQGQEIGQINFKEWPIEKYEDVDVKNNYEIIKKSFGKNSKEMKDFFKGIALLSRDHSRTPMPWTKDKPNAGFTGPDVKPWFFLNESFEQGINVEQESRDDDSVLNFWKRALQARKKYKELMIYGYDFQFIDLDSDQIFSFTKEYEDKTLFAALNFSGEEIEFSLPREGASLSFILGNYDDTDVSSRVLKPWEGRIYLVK
Procedure: All experiments were conducted using a Biacore X100 instrument at 25 °C with a running buffer of 1X PBS-P+ (10 mM phosphate buffer pH 7.4, 2.7 mM KCl, 137 mM NaCl, 0.05% Tween 20) supplemented with 5% DMSO. Compounds were initially dissolved in DMSO to a final concentration of 14 mM. The stock solution was then diluted to 700 μM in 1.05X PBS-P+ to prepare a compound solution containing 1X PBS-P+ with 5% DMSO. This compound solution was utilized to prepare the required concentrations for injections into the Biacore system. α-glucosidase from Saccharomyces cerevisiae was immobilized onto a CM5 chip following standard amine coupling procedures: the CM5 chip, containing channel 1 and 2, was activated with an injection of NHS/EDC mixture with a contact time of 540 s at a flow rate of 10 µL/min. This was followed by multiple injections of α-glucosidase dissolved in 10 mM sodium acetate pH 4.0 (50 µg/mL) onto channel 2, also with a contact time of 540 s at a flow rate of 10 µL/min. Both channels were inactivated by an injection of 1M ethanolamine at a flow rate of 10 µL/min for 540 s. An immobilization level of 3300 RU of α-glucosidase was achieved.
Multi-cycle affinity studies were conducted with a 100 s association phase and a 60 s dissociation phase, using a flow rate of 30 µL/min. Compounds were injected onto the chip at increasing concentrations of 7, 21, 70, 210, and 490 μM. Binding measurements were taken after reference subtraction of channel 1 (no immobilized α-glucosidase) and after subtracting the results from a blank injection with zero analyte concentration. All data evaluation was performed with Biacore X100 evaluation software (version 2.0).

[4] = target: T1, α-glucosidase from Saccharomyces cerevisiae; assay: α-glucosidase inhibition activity (p-NPG substrate); type: biochemical
Procedure: An in vitro α-glucosidase inhibitory assay is commonly used to evaluate the inhibitory effects of various compounds on the enzyme α-glucosidase, which is involved in carbohydrate digestion. Inhibiting this enzyme results in slower glucose absorption, which can be beneficial for managing postprandial blood sugar levels in diabetic conditions. This assay was modified from the methods described by Yusuf et al.. The procedure involved mixing 25 μL of the sample, 150 μL of phosphate buffer saline (PBS) pH 7.4, and 75 μL of 10 mM p-NPG. The mixture was incubated at 37 °C for 10 min. Next, 50 μL of α-glucosidase enzyme from Saccharomyces cerevisiae at a concentration of 0.1 U/mL was added, then incubated at 37 °C for 10 min. To terminate the reaction, […] of 0.1 M sodium carbonate (Na2CO3) was added to the mixture. The absorbance was measured using a microplate reader. The percentage of α-glucosidase inhibition was calculated as follows:
α−glucosidase inhibition(%)=(1–{A−B/C−D})×100
Where A was the absorbance of the sample with α-glucosidase enzyme, B was the absorbance of the sample, C was the absorbance of vehicle with α-glucosidase enzyme, and D was the absorbance of the vehicle (blank).

[5] = 500 μM, second replicate column

With `C=C1CCC2C(C)(COC(C)=O)C(OC(C)=O)CCC2(C)C1CC(SC(=S)N1CCN(c2ccc(O)cc2)CC1)C1=CCOC1=O` (centres unmarked) [compound 3f] the IC50 [1] was about 25 µM, the “% Inhibition (DPPH), replicate 1” value ([1]; 500 μM, first replicate column) was 85.7465% and the “% DPPH Inhibition, Mean” value ([1]; 500 μM, mean of n = 3) was 84% and 84.47 ± 1.14% and 84.4719%. For the same compound, the “% Inhibition (DPPH), replicate 2” value [1, 5] was 83.5328%, the “% Inhibition (DPPH), replicate 3” value ([1]; 500 μM, third replicate column) was 84.1364% and the “FRAP, Ascorbic acid equivalent, replicate 1” value ([2]; 500 μM, first replicate column) was 109.9203 AAE, μM. For the same compound, the “FRAP, Ascorbic acid equivalent, replicate 2” value [2, 5] was 87.9587 AAE, μM, the “FRAP, Ascorbic acid equivalent, replicate 3” value ([2]; 500 μM, third replicate column) was 67.0175 AAE, μM and the FRAP activity ([2]; 600 μM) was 253.90 ± 47.40 AAE. The Kd [3] was 12.9 µM, the “fold stronger affinity than andrographolide” value ([3]; from SPR KD values) was “approximately 10 fold” and the IC50 ([4]; IC50 (α-glucosidase inhibitory activity), concentration range up to 2000 μM) was 411 µM and ~411 µM. The inhibition at 31.2 µM ([4]; read-out: α-glucosidase inhibition (%), Mean, 31.2 μM) was -0.49%, the inhibition at 62.5 µM ([4]; read-out: α-glucosidase inhibition (%), Mean, 62.5 μM) was 5.53% and the inhibition at 125 µM ([4]; read-out: α-glucosidase inhibition (%), Mean, 125 μM) was 15.2%. It also gave an inhibition at 250 µM ([4]; read-out: α-glucosidase inhibition (%), Mean, 250 μM) of 26.6%, an inhibition at 500 µM ([4]; read-out: α-glucosidase inhibition (%), Mean, 500 μM) of 56.3% and an inhibition at 1000 µM ([4]; read-out: α-glucosidase inhibition (%), Mean, 1000 μM) of 78%. It also gave an inhibition at 2000 µM ([4]; read-out: α-glucosidase inhibition (%), Mean, 2000 μM) of 81.9%, an inhibition at 31.2 µM ([4]; read-out: α-glucosidase inhibition (%), replicate 1, 31.2 μM, first replicate column) of 3.15% and an inhibition at 62.5 µM ([4]; read-out: α-glucosidase inhibition (%), replicate 1, 62.5 μM, first replicate column) of 5.24%. It also gave an inhibition at 125 µM ([4]; read-out: α-glucosidase inhibition (%), replicate 1, 125 μM, first replicate column) of 19.1%, an inhibition at 250 µM ([4]; read-out: α-glucosidase inhibition (%), replicate 1, 250 μM, first replicate column) of 28.2% and an inhibition at 500 µM ([4]; read-out: α-glucosidase inhibition (%), replicate 1, 500 μM, first replicate column) of 59.3%. The inhibition at 1000 µM ([4]; read-out: α-glucosidase inhibition (%), replicate 1, 1000 μM, first replicate column) was 78.6%, the inhibition at 2000 µM ([4]; read-out: α-glucosidase inhibition (%), replicate 1, 2000 μM, first replicate column) was 81.9% and the inhibition at 31.2 µM ([4]; read-out: α-glucosidase inhibition (%), replicate 2, 31.2 μM, second replicate column) was -1.2%. It also gave an inhibition at 62.5 µM ([4]; read-out: α-glucosidase inhibition (%), replicate 2, 62.5 μM, second replicate column) of 7.4%, an inhibition at 125 µM ([4]; read-out: α-glucosidase inhibition (%), replicate 2, 125 μM, second replicate column) of 17.6% and an inhibition at 250 µM ([4]; read-out: α-glucosidase inhibition (%), replicate 2, 250 μM, second replicate column) of 28.1%. It also gave an inhibition at 500 µM ([4]; read-out: α-glucosidase inhibition (%), replicate 2, 500 μM, second replicate column) of 57.1%, an inhibition at 1000 µM ([4]; read-out: α-glucosidase inhibition (%), replicate 2, 1000 μM, second replicate column) of 78% and an inhibition at 2000 µM ([4]; read-out: α-glucosidase inhibition (%), replicate 2, 2000 μM, second replicate column) of 81.9%. For the same compound, the inhibition at 31.2 µM ([4]; read-out: α-glucosidase inhibition (%), replicate 3, 31.2 μM, third replicate column) was -3.42%, the inhibition at 62.5 µM ([4]; read-out: α-glucosidase inhibition (%), replicate 3, 62.5 μM, third replicate column) was 3.94% and the inhibition at 125 µM ([4]; read-out: α-glucosidase inhibition (%), replicate 3, 125 μM, third replicate column) was 8.93%. The inhibition at 250 µM ([4]; read-out: α-glucosidase inhibition (%), replicate 3, 250 μM, third replicate column) was 23.5%, the inhibition at 500 µM ([4]; read-out: α-glucosidase inhibition (%), replicate 3, 500 μM, third replicate column) was 52.6% and the inhibition at 1000 µM ([4]; read-out: α-glucosidase inhibition (%), replicate 3, 1000 μM, third replicate column) was 77.3%. The inhibition at 2000 µM ([4]; read-out: α-glucosidase inhibition (%), replicate 3, 2000 μM, third replicate column) was 82%.

With `Cc1c(C)c2c(c(C)c1O)CC[C@@](C)(CCC[C@H](C)CCC[C@H](C)CCCC(C)C)O2` [α-tocopherol] the IC50 [1] was about 25 µM.
